# Test results taken from patent publication US9029366B2, “Substituted bicyclic alkoxy pyrazole analogs as allosteric modulators of mGluR5 receptors” (Vanderbilt University, priority 2012, dated 2015).
# Assays:
# [1] = system: amphetamine-induced hyperlocomotion in male Sprague-Dawley rats; assay: Reversal of amphetamine-induced hyperlocomotion (rat hyperlocomotion assay); type: in vivo; conditions: vehicle 20% HP-β-CD
# Protocol: A suitable assay for determination of the in vivo effects of the disclosed compounds is the induced hyperlocomotion animal model. Briefly, locomotor activity can be assessed as mean distance traveled (cm) in standard 16×16 photocell testing chambers measuring 43.2 cm (Length)×43.2 cm (Width)×30.5 cm (Height) (Med Associates, St. Albans, Vt.). Animals are habituated to individual activity chambers for at least 30 min prior to drug administration. Following administration of drug or vehicle, activity is recorded for a 90 minute time period. Data are expressed as the mean (±SEM) distance traveled recorded in 5 min intervals over the test period. The data are analyzed using repeated measures analysis of variance (ANOVA) followed by post-hoc testing using Dunnett's test, when appropriate. A difference is considered significant when p≦0.05.
# The study was carried out using male Sprague-Dawley rats weighing 225 g-275 g, between 2-3 months old (Harlan, Inc., Indianapolis, Ind.). They were kept in the animal care facility certified by the American Association for the Accreditation of Laboratory Animal Care (AALAC) under a 12-hour light/dark cycle (lights on: 6 a.m.; lights off: 6 p.m.) and had free access to food and water. The experimental protocols performed during the light cycle were approved by the Institutional Animals Care and Use Committee of Vanderbilt University and conformed to the guidelines established by the National Research Council Guide for the Care and Use of Laboratory Animals
# Locomotor activity was assessed as mean distance traveled (cm) in Smart Open Field locomotor activity test chambers (Hamilton-Kinder, San Diego, Calif.) with 16×16 photobeams with chambers measuring 43.2 cm (Length)×43.2 cm (Width)×30.5 cm (Height) (Med Associates, St. Albans, Vt.). The animals were habituated for 30 min and then dosed with vehicle or test compound. The rats were then placed into cages. At 60 min, all rats were injected subcutaneously with 1 mg/kg amphetamine or vehicle and then monitored for an additional 60 min. Animals are monitored for a total of 120 minutes.
# Data are expressed as the mean (±SEM) distance traveled recorded in 5 min intervals over the test period. The data was analyzed using repeated measures analysis of variance (ANOVA) followed by post-hoc testing using Dunnett's test, when appropriate. A difference was considered significant when p≦0.05. The data for the dose-response studies were analyzed by a between-group analysis of variance. If there was a main effect of dose, then each dose group was compared with the vehicle amphetamine group. The calculations were performed using JMP IN 8 (SAS Institute, Cary, N.C.) statistical software and graphed using SigmaPlot9 (Saugua, Mass.).
# Amphetamine sulfate was obtained from Sigma (Cat #A5880-1G; St. Louis, Mo.) and 10 mg was dissolved in 10 ml of water. Test compound, 2-(benzyloxy)-5-[(4-fluorophenyl)carbonyl]-4,5,6,7-tetrahydropyrazolo[1,5-a]pyrazine, was formulated in a volume of 10 ml with an amount of drug appropriate to the dosage indicated. The appropriate amount of compound was mixed into a 20% 2-hydroxypropyl-β-cyclodextrin (2-HP-β-CD) solution. The solution was formulated so that animals were injected with a volume equal to […]. The mixture was then ultrahomogenized on ice for 2-3 minutes using the Dismembrator (Fisher Scientific Model 150T). Then the pH was checked using 0-14 EMD strips and adjusted to a pH of 6-7 if necessary. […]
smiles,measurement,setting,value
"O=C(c1ccc(F)cc1)N1CCn2nc(OCc3ccccc3)cc2C1 [test compound, 2-(benzyloxy)-5-[(4-fluorophenyl)carbonyl]-4,5,6,7-tetrahydropyrazolo[1,5-a]pyrazine]",melting point,,187.7 °C
same,% Reversal of amphetamine-induced hyperlocomotion,[1]; 3 mg/kg test compound p.o. + 1 mg/kg Amph s.c.,14%
same,% Reversal of amphetamine-induced hyperlocomotion,[1]; 10 mg/kg test compound p.o. + 1 mg/kg Amph s.c.,32%
same,% Reversal of amphetamine-induced hyperlocomotion,[1]; 30 mg/kg test compound p.o. + 1 mg/kg Amph s.c.,44%
same,% Reversal of amphetamine-induced hyperlocomotion,[1]; 56.6 mg/kg test compound p.o. + 1 mg/kg Amph s.c.,42%
same,% Reversal of amphetamine-induced hyperlocomotion,[1]; 100 mg/kg test compound p.o. + 1 mg/kg Amph s.c.,41%
